Measurements published in patent publication US9623262B2, “Methods and systems for determining the distribution of radiation dose and response” (priority 2013, dated 2017).

How the values were obtained:
V79 cells [1] = assay: Clonogenic survival assay after single-agent treatment
Description: The surviving fraction SF of cells exposed to the agent was assessed with a clonogenic survival assay and plotted as a function of several different variables including extracellular concentration, <I>net, absorbed dose (Gy), and mean cellular activity (mBq/cell). […] Analogous to the cellular activity and absorbed dose required to achieve 37% survival, a37 and D37, the net mean lethal fluorescence intensity of the drug required to achieve 37% survival, <I>net,37, can be defined similarly and obtained from plots of SF versus <I>net.
A is the intracellular activity of ^210Po-citrate, absorbed dose to the cell nucleus, or drug concentration. Least squares fits of the survival data to this function were performed. The variable b is a fitted parameter.
Cells grown in 225-cm^2 flasks were trypsinized (0.25% trypsin, Gibco, catalog no. 25200-056), and MEMB was added to obtain 2×10^6 cells/mL. Aliquots of 1 mL were placed in Falcon 17×100 mm polypropylene tubes (BD, catalog no. 352018) and placed on a rocker-roller (Thermo Fisher, Fair Lawn, N.J.) for 3 hours at 37° C. with 5% CO2 and 95% air. After this conditioning period, cells were treated with drug or radiochemical. Cell cultures were exposed to radiochemical and drugs for 0.5 and 2.5 h, respectively.
One milliliter of MEMB containing ^210Po-citrate was added to the 1 mL of conditioned V79 cultures (2×10^6 cells/mL), to arrive at a concentration of 0-250 kBq/mL (pH 6.9-7.0). After incubating for 30 min, the cells were washed 2× with MEMB, resuspended in 2 mL of MEMB, and incubated on a rocker-roller for 2.5 h to simulate concomitant drug exposure. The cells were resuspended in a 5 mL of MEMB, passed 5× through a needle, and counted with a Beckman Coulter Model Z2 (Brea, Calif.). Aliquots (500 μL) of the cell suspension were transferred to vials, mixed with 5 mL Ecolume (MP Biomedical, Solon, Ohio, catalog no. 882470), and counted with a Beckman Coulter LS6500, and the mean activity per cell was determined (efficiency, 50% as per prior studies). Aliquots of about 5×10^5 cells were counted in triplicate for ^210Po activity and the cpm ranged from 10^3-10^5. The triplicate measurements kept statistical variations to a minimum. Each sample was serially diluted and plated in Falcon 60×15 mm tissue culture dishes for colony formation. Cultures were incubated for 7 days, and the colonies were fixed in 95% ethanol, stained with 0.01% Amido Black, washed in tap-water, air-dried, and counted.
After conditioning, the cell cultures were treated with daunomycin (Sigma, catalog no. D8809) or doxorubicin (Sigma, catalog no. 44583) to a final concentration of 0-10 μmol/L in MEMB. The tubes were returned to the rocker-roller for 2.5 h. The cells were then processed for colony formation as described above.

V79 cells [2] = assay: Clonogenic survival after combined treatment with 210Po-citrate and drug (cocktails); assay type: cell-based, Chinese hamster; details: for dose dependence of the enhancement of α-particle radiotoxicity: 0.63 μM daunomycin or 2.50 μM doxorubicin with graded 210Po-citrate; for effect of drug on radiotoxicity of 210Po-citrate: concomitant treatment, survival corrected for drug toxicity
Description: To evaluate cytotoxicity of combined treatment of V79 cells with ^210Po-citrate and daunomycin, or ^210Po-citrate and doxorubicin, the surviving fraction of clonogens was plotted as a function of mean cellular uptake of ^210Po (FIG. 9) and as a function of mean absorbed dose to the cell nucleus. When cells were only treated with ^210Po-citrate, the survival curve can be described by a 1-component exponential function. When cells were concomitantly treated with a single drug concentration and varying amounts of ^210Po-citrate, the dose-response curves followed a 2-component exponential function. The data corresponding to the combined treatments were then corrected for drug toxicity, by dividing the surviving fraction for each datum point by the surviving fraction for drug alone (SF=0.10), and replotted in FIG. 9. Both of the corrected cell survival curves emerged below those obtained for ^210Po-citrate alone.

Compound	relative cytotoxicity based on extracellular drug concentration (V79 cells [1]; V79 cell cultures)	lethality of daunomycin relative to doxorubicin (V79 cells [1]; low extracellular concentrations, V79 cells) [×]	dose dependence of the enhancement of α-particle radiotoxicity (V79 cells [2])	effect of drug on radiotoxicity of 210Po-citrate (V79 cells [2])	cellular uptake of 210Po at the mean lethal dose (V79 cells [1]; 37% survival) [mBq/cell]	atoms of 210Po per cell at the mean lethal dose (V79 cells [1]; corresponds to 0.21 mBq/cell)
COc1cccc2c1C(=O)c1c(O)c3c(c(O)c1C2=O)C[C@@](O)(C(C)=O)C[C@@H]3O[C@H]1C[C@H](N)[C@H](O)[C@H](C)O1 [daunomycin]	more cytotoxic than doxorubicin	~5	independent of radiation absorbed dose beyond about 0.5 Gy	enhance the radiotoxicity of α-particles	–	–
^210Po-citrate	–	–	–	–	0.21	about 3600 atoms
COc1cccc2c1C(=O)c1c(O)c3c(c(O)c1C2=O)C[C@@](O)(C(=O)CO)C[C@@H]3O[C@H]1C[C@H](N)[C@H](O)[C@H](C)O1 [doxorubicin]	–	–	dose-dependent increase	enhance the radiotoxicity of α-particles	–	–
